Some results are limits rather than exact numbers.

Data on twelve compounds can be found in ChEMBL document CHEMBL4665655, “Highly tunable thiosulfonates as a novel class of cysteine protease inhibitors with anti-parasitic activity against Schistosoma mansoni” (Bioorg Med Chem, 2019).

In one data set the target is T1, Papain (Carica papaya, UniProt P00784).
T1 sequence (P00784 whole entry): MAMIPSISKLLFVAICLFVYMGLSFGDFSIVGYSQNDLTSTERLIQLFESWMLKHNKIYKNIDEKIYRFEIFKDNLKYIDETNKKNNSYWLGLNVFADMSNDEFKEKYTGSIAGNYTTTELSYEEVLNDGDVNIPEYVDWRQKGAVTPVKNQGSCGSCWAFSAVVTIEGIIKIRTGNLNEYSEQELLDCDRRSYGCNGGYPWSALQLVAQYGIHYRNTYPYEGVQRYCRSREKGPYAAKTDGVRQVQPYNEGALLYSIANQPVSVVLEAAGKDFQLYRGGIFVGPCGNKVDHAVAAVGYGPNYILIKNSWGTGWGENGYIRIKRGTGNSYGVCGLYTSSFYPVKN
In words: Inhibition of papaya papain assessed as reduction in p-nitoaniline release using Nalpha-benzoyl-L-arginine 4-nitroanilide hydrochloride as substrate measured after 1 hr.

Data set [1] in a line: Inhibition of cysteine protease in Schistosoma mansoni assessed as reduction in schistosomula viability incubated for 3 days by inverted microscopy analysis.
Data set [2] is described as follows: Inhibition of cysteine protease in Schistosoma mansoni assessed as reduction in schistosomula viability incubated for 7 days by inverted microscopy analysis.
The nature of data set [3]: Aqueous stability of the compound in 0.1 M sodium phosphate buffer assessed as half life at pH 8 incubated under shaken condition by HPLC analysis. It is filed as physicochemical.
Data set [4] is described as follows: Aqueous stability of the compound in 0.1 M sodium phosphate buffer at pH 6 to 7 incubated under shaken condition by HPLC analysis. It counts as physicochemical.
Data set [5] can be described thus: Aqueous stability of the compound in 0.1 M sodium phosphate buffer assessed as half life at pH 6 incubated under shaken condition by HPLC analysis. It counts as physicochemical.
Data set [6] in a line: Aqueous stability of the compound in 0.1 M sodium phosphate buffer assessed as time taken for drug degradation at pH 7 to 8 incubated under shaken condition by HPLC analysis. It is filed as physicochemical.
Data set [7] in a line: Aqueous stability of the compound in 0.1 M sodium phosphate buffer assessed as half life at pH 7 incubated under shaken condition by HPLC analysis. It is filed as physicochemical.

One may read the IC50 as the midpoint of a concentration-inhibition curve. With `Cc1ccc(S(=O)(=O)SC[C@H](CCCNC(=N)N)NC(=O)[C@H](Cc2ccccc2)NC(=O)N2CCN(C)CC2)cc1`, on Papain, the IC50 turned out to be 162 nM.
`O[C@@H](c1cc(C(F)(F)F)nc2c(C(F)(F)F)cccc12)[C@H]1CCCCN1` [(S,R)-MEFLOQUINE]: the IC50 is 2400 nM in data set [1] and 400 nM in data set [2].
In the case of `CN1CCN(C(=O)N[C@@H](Cc2ccccc2)C(=O)N[C@@H](CCc2ccccc2)CSS(=O)(=O)c2ccccc2)CC1`, the IC50 at Papain stood at 190 nM; in data set [1], 64400 nM; in data set [2], 21400 nM.
Take `CN1CCN(C(=O)N[C@@H](Cc2ccccc2)C(=O)N[C@H](/C=C/S(=O)(=O)c2ccccc2)CCc2ccccc2)CC1` [K-777]: the IC50 on Papain turned out to be 81 nM; in data set [1], 59900 nM; in data set [2], 7300 nM.
For `Cc1ccc(S(=O)(=O)SC[C@H](CCc2ccccc2)NC(=O)[C@H](Cc2ccccc2)NC(=O)N2CCN(C)CC2)cc1` the same measures were 182 nM, 41100 nM and 26900 nM.
One may read the half-life as the time needed for the level to fall by half in the phase considered. With `CN1CCN(C(=O)N[C@@H](Cc2ccccc2)C(=O)N[C@@H](CCc2ccccc2)CSS(=O)(=O)C2CCCCC2)CC1.O=C(O)C(F)(F)F`, the IC50 stood at 168 nM on Papain, 25400 nM in data set [1] and 13500 nM in data set [2]. Besides, the half-life in data set [3] is 6 h. Moreover, in data set [4], the Stabilty result was “Stable”.
Take `CN1CCN(C(=O)N[C@@H](Cc2ccccc2)C(=O)N[C@@H](CCCNC(=N)N)CSS(=O)(=O)c2ccc([N+](=O)[O-])cc2)CC1`: the IC50 at Papain came to 129 nM.
On the same count and under the same terms, as for `COc1ccc(S(=O)(=O)SC[C@H](CCCNC(=N)N)NC(=O)[C@H](Cc2ccccc2)NC(=O)N2CCN(C)CC2)cc1`, the figure is 124 nM; as for `CN1CCN(C(=O)N[C@@H](Cc2ccccc2)C(=O)N[C@@H](CCCNC(=N)N)CSS(=O)(=O)c2ccccc2)CC1`, 168 nM; as for `CN1CCN(C(=O)N[C@@H](Cc2ccccc2)C(=O)N[C@@H](CCCNC(=N)N)CSS(=O)(=O)C2CCCCC2)CC1`, 106 nM.
In the case of `CN1CCN(C(=O)N[C@@H](Cc2ccccc2)C(=O)N[C@@H](CCc2ccccc2)CSS(=O)(=O)c2ccc([N+](=O)[O-])cc2)CC1.O=C(O)C(F)(F)F`, the half-life in data set [5] is 1.45 h. In data set [6], the Time is less than 1 h. The results for the 50% inhibitory concentration (IC50) (at Papain; in data set [1]; in data set [2]) were 186 nM, 29300 nM and 14700 nM, respectively.
On to `COc1ccc(S(=O)(=O)SC[C@H](CCc2ccccc2)NC(=O)[C@H](Cc2ccccc2)NC(=O)N2CCN(C)CC2)cc1.O=C(O)C(F)(F)F`, for which the half-life was 1 h in data set [5] and 24 h in data set [7]. In addition, the IC50 on Papain is 148 nM; in data set [1], 44900 nM; in data set [2], 13600 nM.
